Measurements from article PMC12289066, “Identification of glutathione transferase (GST P1) inhibitors via a high-throughput screening assay and implications as alternative treatment options for breast cancers” (PLOS One, 2025).

Target: T1, GST P1-1 (Homo sapiens, UniProt P09211)
T1 construct: purchased Sigma-Aldrich
Test: High-throughput GST P1-1 inhibition assay (384-well screen, CDNB/GSH)
Assay type: biochemical
Settings: compound 10 μM; score 0 = negative control (DMSO), 1 = positive control (EA 50 μM); average of duplicate
Protocol: Each drug compound was added to the respective well at a volume of 80 nL of 10 mM stock solution in DMSO, yielding a final compound concentration of 10 μM and a final DMSO concentration of 0.1%. Each plate’s first and last two columns were used as negative (no compound added – 80 nL per well of DMSO) and positive (80 nL of EA added with a final concentration of 50 μM) controls, respectively. The Gyger Certus Flex dispenser was set up using a freshly prepared 1 mM of GSH and 20 nM of GST P1-1, pH 7.4, in one syringe and 8 mM CDNB solution in pure ethanol in the other syringe. Into each well 80 μL of GST-GSH solution was dispensed and incubated at 25°C for 20 minutes before the reaction was initiated by the addition of 4 μL of CDNB solution. The plates were incubated for 2 h in the dark at 25°C and then the absorbance was of each well recorded on a BioTek Synergy NEO HTS multimode plate reader (Agilent®) at a wavelength of 340 nm.
The z’factor was calculated for each plate according to Zhang et al.. The Z-factor is a dimensionless, simple statistical characteristic for each HTS assay. This provides a valuable tool for the comparison and assessment of the quality of assays, and can be utilized in assay optimization and validation. For each plate, the concentration of product was normalized by assigning a score of 0 (0%) to the negative control (average of maximal concentration of product measured in the presence of enzyme without any inhibitor) and a score of 1 (100%) was assigned to the positive control (average minimal concentration of product measured in the presence of enzyme with the reference inhibitor, i.e., EA). The experiment was performed in duplicate and the score for each drug compound was calculated as an average ± standard deviation. […] An internal laboratory information management system (LIMS) was used for basic data processing, management, visualization, and statistical hit validation.

T1 sequence (P09211 2-210 limits assumed): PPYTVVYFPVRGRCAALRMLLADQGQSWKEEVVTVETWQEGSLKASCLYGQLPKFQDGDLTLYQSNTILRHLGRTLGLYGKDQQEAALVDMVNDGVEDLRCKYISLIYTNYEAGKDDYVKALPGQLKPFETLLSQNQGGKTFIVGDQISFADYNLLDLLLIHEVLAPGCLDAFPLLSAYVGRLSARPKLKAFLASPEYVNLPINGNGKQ

Row | Molecule | Score
1 | O=C(O)C(Cc1ccccc1[N+](=O)[O-])=NNc1nc(-c2ccc(Cl)c(Cl)c2)cs1 (mixture of isomers) [4EGI-1] | 0.730
2 | CC#C[C@@H](CC(=O)[O-])c1ccc(OCc2cccc(-c3ccc(C(F)(F)F)cc3)c2)cc1.CC#C[C@@H](CC(=O)[O-])c1ccc(OCc2cccc(-c3ccc(C(F)(F)F)cc3)c2)cc1.O.[Ca+2] [AMG 837 (calcium hydrate)] | 0.783
3 | NC[C@@](O)(c1ccc(Cl)cc1)c1ccc(-c2cn[nH]c2)cc1 [AT13148] | 0.738
4 | O=C1c2c(O)cccc2Cc2cccc(O)c21 [Anthralin] | 0.694
5 | CC(C)(c1ccc(OCC2CO2)cc1)c1ccc(OCC2CO2)cc1 (centres unmarked) [BADGE] | 0.715
6 | Oc1c(Cl)cc(Cl)cc1Sc1cc(Cl)cc(Cl)c1O [Bithionol] | 1.007
7 | O=C1C=Cc2cc(Br)ccc2C1=O [Bonaphthone] | 0.770
8 | CCN(CC)c1ccc(C(=C2C=CC(=[N+](CC)CC)C=C2)c2ccccc2)cc1 [Brilliant-green] | 0.783
9 | CCOC(=O)Nc1cc(-c2ccc(C)c(NS(C)(=O)=O)c2)nn2c(C)nnc12 [Bromosporine] | 0.801
10 | CC(C)(C)c1ccc(CN2CCN(C(c3ccccc3)c3ccc(Cl)cc3)CC2)cc1 (centres unmarked) [Buclizine] | 0.694
11 | O=C(O)c1ccc(-c2ccc3cc(O)c(C45CC6CC(CC(C6)C4)C5)cc3c2)cc1 [CD-1530] | 0.979
12 | O=C(O)C1(c2ccc(-c3ccc(Cl)c(Cl)c3)c(F)c2)CC1 [CHF5074] | 0.911
13 | COc1cc(-c2ccc(N=Nc3ccc4c(S(=O)(=O)[O-])cc(S(=O)(=O)[O-])c(N)c4c3O)c(OC)c2)ccc1N=Nc1ccc2c(S(=O)(=O)[O-])cc(S(=O)(=O)[O-])c(N)c2c1O.[Na+].[Na+].[Na+].[Na+] [Chicago sky blue 6B] | 0.863
14 | CCCCCC/C=C/C=C\CCCCCCCC(=O)O [Cis-9,trans-11-Conjugated-linoleic-acid] | 0.796
15 | O=c1c(-c2ccccc2)c1-c1ccccc1 [Diphencyprone] | 0.744
16 | CC/C=C\C/C=C\C/C=C\C/C=C\C/C=C\C/C=C\CCC(=O)O [Docosahexaenoic Acid] | 0.821
17 | CC(C)c1cccc2c(-c3ccccc3)cc(-c3ccc(-c4ccc(C(=O)O)cc4)[nH]3)nc12 [ER-50891] | 0.927
18 | CC1=NN(c2ccccc2)C(=O)C1 [Edaravone] | 0.958
19 | O=C1OC2(c3ccccc31)c1cc(I)c(O)c(I)c1Oc1c2cc(I)c(O)c1I [Erythrosine] | 0.828
20 | Cc1cc(-c2ccc(/N=N/c3ccc4c(S(=O)(=O)O)cc(S(=O)(=O)O)c(N)c4c3O)c(C)c2)ccc1/N=N/c1ccc2c(S(=O)(=O)O)cc(S(=O)(=O)O)c(N)c2c1O [Evans Blue] | 0.783
21 | CCOc1c2c(c(OCC)c3ccccc13)C(=O)N(c1ccc(CC(=O)NS(=O)(=O)c3ccccc3)cc1)C2 [GW627368] | 0.854
22 | CC(C)c1onc(-c2c(Cl)cccc2Cl)c1COc1ccc(/C=C/c2cccc(C(=O)O)c2)c(Cl)c1 [GW 4064] | 0.702
23 | CC1=C(CCC(=O)O)c2cc3[nH]c(cc4nc(cc5[nH]c(cc1n2)c(C)c5C(C)O)C(C)=C4C(C)O)c(C)c3CCC(=O)O (centres unmarked) [Hematoporphyrin] | 0.758
24 | O=C(NCc1ccc(Oc2ccccc2)cc1)c1nc(-c2cc(Br)c(O)c(Br)c2)no1 [IOWH-032] | 0.901
25 | Oc1ccc2ccccc2c1SSc1c(O)ccc2ccccc12 [IPA-3] | 0.881
26 | C=CC(=O)c1ccc2ccccc2c1 [JAK3-inhibitor-V] | 0.817
27 | Cc1noc(-c2ccc(CSCCC(=O)O)cc2)c1NC(=O)OC(C)c1ccccc1Cl (centres unmarked) [Ki16425] | 0.710

Row | Molecule | Score
28 | CC[C@@H](C(=O)[C@@H](C)[C@@H](O)[C@H](C)CCc1ccc(C)c(O)c1C(=O)O)[C@H]1O[C@](CC)([C@H]2CC[C@](O)(CC)[C@H](C)O2)C[C@@H]1C [Lasalocid] | 0.863
29 | O=[N+]([O-])/C=C/c1ccc2c(c1)OCO2 [MNS] | 0.850
30 | COc1cc(C[C@H](C)[C@H](C)Cc2ccc3c(c2)OCO3)ccc1O [Macelignan] | 0.803
31 | O=C([O-])c1ccccc1-c1c2cc(Br)c(=O)cc-2oc2[c]([Hg+])c([O-])c(Br)cc12.[Na+].[Na+].[OH-] [Merbromin] | 0.993
32 | Cc1cc(=O)n(-c2ccccc2)[nH]1 [N-demethylantipyrine] | 1.019
33 | O=C(Nc1cccc(C(F)(F)F)c1)Nc1ccc(Br)cc1-c1nn[nH]n1 [NS-3623] | 0.752
34 | CCCCCCCCCCCCc1ccc(S(=O)(=O)Nc2nncs2)cc1 [PHT-427] | 0.696
35 | CC1(C)CCC(C)(C)c2cc(Cn3cccn3)c(/C=C/c3ccc(C(=O)O)cc3)cc21 [Palovarotene] | 0.763
36 | C=CC1=C(C)c2cc3[nH]c(cc4nc(cc5[nH]c(cc1n2)c(C)c5CCC(=O)O)C(CCC(=O)O)=C4C)c(C)c3C=C [Protoporphyrin IX] | 0.914
37 | CC1(C)CC[C@]2(NC(=O)C(C)(F)F)CC[C@]3(C)[C@H](C(=O)C=C4[C@@]5(C)C=C(C#N)C(=O)C(C)(C)[C@@H]5CC[C@]43C)[C@@H]2C1 [RTA-408] | 0.807
38 | O=C1OC2(c3cc(I)c(O)c(I)c3Oc3c2cc(I)c(O)c3I)c2c(Cl)c(Cl)c(Cl)c(Cl)c21 [Rose-bengal-lactone] | 0.937
39 | O=C1OC2(c3cc(I)c(O)c(I)c3Oc3c2cc(I)c(O)c3I)c2c(Cl)c(Cl)c(Cl)c(Cl)c21 [Rse-bengal] | 0.996
40 | N[C@@H](Cc1cc(-c2ccc(Cl)cc2Cl)cc(CP(=O)(O)O)c1O)C(=O)O [SDZ-220-040] | 0.871
41 | Oc1ccc(Nc2nc(-c3ccc(Cl)cc3)cs2)cc1 [SKI II] | 0.694
42 | CC1=C(/C=C/C(=C/C=C/C(C)=C/C(=O)O)c2ccc(C)cc2)C(C)(C)CCC1 [SR-11302] | 0.733
43 | O=C(/C=C/c1ccccc1)NC(NC(=S)Nc1ccc(Cl)cc1)C(Cl)(Cl)Cl (centres unmarked) [Sal003] | 0.865
44 | CC(C)=CCC/C(C)=C/CC/C(C)=C/CSc1ccccc1C(=O)O [Salirasib] | 0.717
45 | O=C1C(CC[S+]([O-])c2ccccc2)C(=O)N(c2ccccc2)N1c1ccccc1 (centres unmarked) [Sulfinpyrazone] | 0.823
46 | O=S(=O)(O)c1ccc(-c2c3nc(c(-c4ccc(S(=O)(=O)O)cc4)c4ccc([nH]4)c(-c4ccc(S(=O)(=O)O)cc4)c4nc(c(-c5ccc(S(=O)(=O)O)cc5)c5ccc2[nH]5)C=C4)C=C3)cc1 [TPPS4] | 0.809
47 | Cc1c(S(=O)(=O)O)oc2c1C(=O)C(=O)c1c-2ccc2c1CCCC2(C)C [Tanshinone IIA sulfonate (sodium), Tanshinone IIA sulfonate] | 0.981
48 | Oc1cccc(-c2c3nc(c(-c4cccc(O)c4)c4ccc([nH]4)c(-c4cccc(O)c4)c4nc(c(-c5cccc(O)c5)c5ccc2[nH]5)CC4)C=C3)c1 [Temoporfin] | 0.699
49 | O=C(O)C(=O)c1cn(Cc2ccccc2)c2ccc(-c3ccc(OC(F)(F)F)cc3)cc12 [Tiplaxtinin] | 0.836
50 | O=C(Nc1ccc(Cl)cc1)Nc1ccc(Cl)c(Cl)c1 [Triclocarban] | 0.702
51 | Cc1cc(F)c(Nc2ncnc3cc(OCc4ccccc4)ccc23)cc1O.Cl [ZM323881 (hydrochloride)] | 0.946
52 | COc1cc(C(=O)NS(=O)(=O)c2ccccc2C)ccc1Cc1cn(C)c2ccc(NC(=O)OC3CCCC3)cc12 [Zafirlukast] | 0.801
53 | AS-2034178 | 0.982
